In brackets after ≈: the same amount, converted by molar mass.
System: P. aeruginosa 26
Test: in vitro Antimicrobial Activity (two-fold agar-plate dilution method)
Format: cell-based
Conditions: Pseudomonas aeruginosa, heart infusion agar, 10^6 viable cells per ml, 37° C. for 20 hours, read-out: minimal inhibitory concentration (MIC)
Procedure: in vitro Antimicrobial Activity was determined by the two-fold agar-plate dilution method as described blow.
One loopful of an overnight culture of a test strain in Trypticase-soy broth (10^6 viable cells per ml) was streaked on heart infusion agar (HI-agar) containing graded concentrations of the test compound, and the minimal inhibitory concentration (MIC) was expressed in terms of μg/ml after incubation at 37° C. for 20 hours.
The compound of Example 2.

C[C@@H](O)[C@H]1C(=O)N2C(C(=O)O)=C(S[C@@H]3CN[C@H](CN4CCNCC4)C3)[C@H](C)[C@H]12 [Example 2, (4R,5S,6S)-6-[(1R)-1-hydroxyethyl]-4-methyl-7-oxo-3-[(2S,4S)-2-(piperazin-1-yl)methylpyrrolidin-4-yl]thio-1-azabicyclo[3.2.0]hept-2-ene-2-carboxylic acid]
MIC: 0.39 µg/mL (≈ 0.95 µM)
